Like-named read-outs stand apart in the source and are kept apart here.
What was measured:
[1] = test system: avian influenza virus KBNP-0028 (KCTC 10866BP); format: cell-based, A/chicken/Korea/SNU0028/2000(H9N2)
[2] = test system: CEF (chicken embryo fibroblasts)

Row | SMILES | antiviral activities (in words) [1] | Number of wells which hemagglutination occurs (among 6 wells) ([1]; 12.5 μg/mL) | Number of wells which hemagglutination occurs (among 6 wells) ([1]; 25 μg/mL) | Number of wells which hemagglutination occurs (among 6 wells) ([1]; 50 μg/mL) | Number of wells which hemagglutination occurs (among 6 wells) ([1]; 100 μg/mL) | Cytotoxicity, MTT assay reading ([2]; 6.25 μg/mL) | Cytotoxicity, MTT assay reading ([2]; 12.5 μg/mL) | Cytotoxicity, MTT assay reading ([2]; 25 μg/mL) | Cytotoxicity, MTT assay reading ([2]; 50 μg/mL) | Cytotoxicity, MTT assay reading ([2]; 100 μg/mL) | Cytotoxicity, MTT assay reading ([2]; 200 μg/mL)
1 | O=C(/C=C/CCc1ccc(O)cc1)CCc1ccc(O)c(O)c1 [12B-AJ-7A-1, 1-(3′,4′-dihydroxyphenyl)-7-(4″-hydroxyphenyl)-4(E)-hepten-3-one] | excellent antiviral activities | 3 | 3 | 2 | 0 | 0.424 | 0.418 | 0.347 | 0.478 | 0.411 | 0.531
2 | O=C(/C=C/CCc1ccc(O)c(O)c1)CCc1ccc(O)c(O)c1 [12B-AJ-7B, 1,7-bis(3,4-dihydroxyphenyl)-4(E)-hepten-3-one] |  | 3 | 3 | 3 | 3 | 0.413 | 0.364 | 0.345 | 0.399 | 0.427 | 0.560
3 | O=C(CCc1ccc(O)c(O)c1)CC(CCc1ccc(O)cc1)O[C@@H]1OC[C@@H](O)[C@H](O)[C@H]1O (stereo partly drawn) [12B-AJ-11B-1, 1-(3,4-dihydroxyphenyl)-7-(4-hydroxyphenyl)-3-heptanone-5-o-β-D-xylopyranose] | excellent antiviral activities | 3 | 3 | 3 | 1 | 0.535 | 0.399 | 0.483 | 0.487 | 0.316 | 0.363
4 | O=C(CCc1ccc(O)cc1)C[C@H](CCc1ccc(O)cc1)O[C@@H]1OC[C@@H](O)[C@H](O)[C@H]1O [12B-AJ-16A, (5S)1,7-bis(4-hydroxyphenyl)-5-o-β-D-xylopyranoside-heptane-3-one] |  | 3 | 3 | 1 | 0 | 0.441 | 0.427 | 0.432 | 0.451 | 0.302 | 0.309
